Results taken from ChEMBL document CHEMBL2429783, “Discovery of epigenetic regulator I-BET762: lead optimization to afford a clinical candidate inhibitor of the BET bromodomains” (J Med Chem, 2013).
Converted amounts (≈) assume the structure as drawn.

Experiments:
[1] = physchem; conditions: FaSSIF, pH 6.5
Description: Solubility of the compound in FaSSIF at pH 6.5 after 16 hrs by HPLC analysis

[2] = molecular target: Bromodomain-containing protein 2 (Homo sapiens, UniProt P25440)
Description: Binding affinity to His6-tagged BRD2 (unknown origin) after 60 mins by fluorescence anisotropy binding Assay

[3] = test system: PBMC; experiment: cells; conditions: Homo sapiens, read-out: pIC50 (converted)
Description: Antiinflammatory activity against human PBMC cells assessed as LPS-induced IL-6 production by chemiluminescence assay

[4] = molecular target: Bromodomain-containing protein 3 (Homo sapiens, UniProt Q15059)
Description: Binding affinity to His6-tagged BRD3 (unknown origin) after 60 mins by fluorescence anisotropy binding Assay

[5] = test system: HepG2; experiment: Upregulation of human apoA1 level in human HepG2 cells after 16 to 20 hrs by luciferase reporter gene assay; assay type: functional
[6] = Half life in buffer at pH 2 by HPLC analysis; assay type: physicochemical
[7] = test system: Rattus norvegicus; experiment: Antiinflammatory activity against po dosed Sprague-Dawley rat immunoinflammatory model assessed as inhibition of KLH-induced ear swelling administered qd for 7 days measured 24 hrs post KLH challenge relative to control; assay type: functional, organism-based
[8] = test system: Salmonella typhimurium; experiment: Genotoxicity in Salmonella typhimurium TA100 by Ames test; assay type: toxicity, organism-based; conditions: salmonella enterica subsp. enterica serovar typhimurium
[9] = test system: Salmonella typhimurium; experiment: Genotoxicity in Salmonella typhimurium TA98 by Ames test; assay type: toxicity, organism-based; conditions: salmonella enterica subsp. enterica serovar typhimurium
[10] = test system: Salmonella typhimurium; experiment: Genotoxicity in Salmonella typhimurium TA1537 by Ames test; assay type: toxicity, organism-based; conditions: salmonella enterica subsp. enterica serovar typhimurium
[11] = test system: Salmonella typhimurium; experiment: Genotoxicity in Salmonella typhimurium TA1535 by Ames test; assay type: toxicity, organism-based; conditions: salmonella enterica subsp. enterica serovar typhimurium
[12] = test system: Salmonella typhimurium; experiment: Genotoxicity in Salmonella typhimurium TA100 by Ames test in presence of rat S9 mix; assay type: toxicity, organism-based; conditions: salmonella enterica subsp. enterica serovar typhimurium
[13] = test system: Salmonella typhimurium; experiment: Genotoxicity in Salmonella typhimurium TA98 by Ames test in presence of rat S9 mix; assay type: toxicity, organism-based; conditions: salmonella enterica subsp. enterica serovar typhimurium
[14] = test system: Salmonella typhimurium; experiment: Genotoxicity in Salmonella typhimurium TA1535 by Ames test in presence of rat S9 mix; assay type: toxicity, organism-based; conditions: salmonella enterica subsp. enterica serovar typhimurium
[15] = test system: Salmonella typhimurium; experiment: Genotoxicity in Salmonella typhimurium TA1537 by Ames test in presence of rat S9 mix; assay type: toxicity, organism-based; conditions: salmonella enterica subsp. enterica serovar typhimurium
[16] = Oral bioavailability in beagle dog at 3 mg/kg after 1 hr; assay type: ADME, organism-based, Canis lupus familiaris; conditions: in vivo
[17] = Oral bioavailability in cynomolgus monkey at 5 mg/kg after 1 hr; assay type: ADME, organism-based, Macaca fascicularis; conditions: in vivo
[18] = Oral bioavailability in CD rat at 3 mg/kg after 1 hr; assay type: ADME, organism-based; conditions: in vivo
[19] = Oral bioavailability in Balb/c mouse at 3 mg/kg after 1 hr; assay type: ADME, organism-based; conditions: in vivo
[20] = Terminal half life in cynomolgus monkey at 2 mg/kg, iv after 1 hr; assay type: ADME, organism-based, Macaca fascicularis; parameters: dose 2 mg/kg, route intravenous; conditions: in vivo, read-out: beta t1/2 (converted)
[21] = Terminal half life in beagle dog at 1 mg/kg, iv after 1 hr; assay type: ADME, organism-based, Canis lupus familiaris; parameters: dose 1 mg/kg, route intravenous; conditions: in vivo, read-out: beta t1/2 (converted)
[22] = Terminal half life in CD rat at 1 mg/kg, iv after 1 hr; assay type: ADME, organism-based; parameters: dose 1 mg/kg, route intravenous; conditions: in vivo, read-out: beta t1/2 (converted)
[23] = Terminal half life in Balb/c mouse at 1 mg/kg, iv after 1 hr; assay type: ADME, organism-based; parameters: dose 1 mg/kg, route intravenous; conditions: in vivo, read-out: beta t1/2 (converted)
[24] = Volume of distribution in cynomolgus monkey at 2 mg/kg, iv and 5 mg/kg, po after 1 hr; assay type: ADME, organism-based, Macaca fascicularis; conditions: in vivo
[25] = Volume of distribution in beagle dog at 1 mg/kg, iv and 3 mg/kg, po after 1 hr; assay type: ADME, organism-based, Canis lupus familiaris; conditions: in vivo
[26] = Volume of distribution in CD rat at 1 mg/kg, iv and 3 mg/kg, po after 1 hr; assay type: ADME, organism-based; conditions: in vivo
[27] = Volume of distribution in Balb/c mouse at 1 mg/kg, iv and 3 mg/kg, po after 1 hr; assay type: ADME, organism-based; conditions: in vivo
[28] = AUC (0 to infinity) in cynomolgus monkey at 2 mg/kg, iv and 5 mg/kg, po after 1 hr; assay type: ADME, organism-based, Macaca fascicularis; conditions: plasma
[29] = AUC (0 to infinity) in CD rat at 1 mg/kg, iv and 3 mg/kg, po after 1 hr; assay type: ADME, organism-based; conditions: plasma
[30] = AUC (0 to infinity) in beagle dog at 1 mg/kg, iv and 3 mg/kg, po after 1 hr; assay type: ADME, organism-based, Canis lupus familiaris; conditions: plasma
[31] = AUC (0 to infinity) in Balb/c mouse at 1 mg/kg, iv and 3 mg/kg, po after 1 hr; assay type: ADME, organism-based; conditions: plasma
[32] = Fraction unbound in dog blood at 1000 ng/ml by equilibrium dialysis method; assay type: ADME, tissue-based, Canis lupus familiaris
[33] = Fraction unbound in human blood at 1000 ng/ml by equilibrium dialysis method; assay type: ADME, tissue-based
[34] = Fraction unbound in mouse blood at 1000 ng/ml by equilibrium dialysis method; assay type: ADME, tissue-based
[35] = Fraction unbound in rat blood at 1000 ng/ml by equilibrium dialysis mehod; assay type: ADME, tissue-based
[36] = test system: Hepatocyte; conditions: human, hepatocytes, 2 h
Description: Clearance in human hepatocytes after 120 mins by LC/MS/MS analysis

[37] = cynomolgus monkey, hepatocytes, 2 h
Description: Clearance in cynomolgus monkey hepatocytes after 120 mins by LC/MS/MS analysis

[38] = dog, hepatocytes, 2 h
Description: Clearance in dog hepatocytes after 120 mins by LC/MS/MS analysis

[39] = test system: Hepatocyte; conditions: rat, hepatocytes, 2 h
Description: Clearance in rat hepatocytes after 120 mins by LC/MS/MS analysis

[40] = test system: Liver microsomes; conditions: human, 0.5 h
Description: Clearance in human liver microsomes after 30 mins by LC/MS/MS analysis

[41] = test system: Hepatocyte; conditions: mouse, hepatocytes, 2 h
Description: Clearance in mouse hepatocytes after 120 mins by LC/MS/MS analysis

[42] = cynomolgus monkey, microsomes, 0.5 h
Description: Clearance in cynomolgus monkey liver microsomes after 30 mins by LC/MS/MS analysis

[43] = test system: Liver; conditions: dog, microsomes, 0.5 h
Description: Clearance in dog liver microsomes after 30 mins by LC/MS/MS analysis

[44] = test system: Liver microsomes; conditions: rat, 0.5 h
Description: Clearance in rat liver microsomes after 30 mins by LC/MS/MS analysis

[45] = test system: Liver; conditions: mouse, microsomes, 0.5 h
Description: Clearance in mouse liver microsomes after 30 mins by LC/MS/MS analysis

[46] = in vivo; conditions: cynomolgus monkey, iv, 2 mg/kg
[47] = in vivo; conditions: beagle, dog, iv, 1 mg/kg
[48] = in vivo; conditions: CD, rat, iv, 1 mg/kg
[49] = in vivo; conditions: Balb/c, mouse, iv, 1 mg/kg

Sequence of Bromodomain-containing protein 3 (Q15059 whole entry): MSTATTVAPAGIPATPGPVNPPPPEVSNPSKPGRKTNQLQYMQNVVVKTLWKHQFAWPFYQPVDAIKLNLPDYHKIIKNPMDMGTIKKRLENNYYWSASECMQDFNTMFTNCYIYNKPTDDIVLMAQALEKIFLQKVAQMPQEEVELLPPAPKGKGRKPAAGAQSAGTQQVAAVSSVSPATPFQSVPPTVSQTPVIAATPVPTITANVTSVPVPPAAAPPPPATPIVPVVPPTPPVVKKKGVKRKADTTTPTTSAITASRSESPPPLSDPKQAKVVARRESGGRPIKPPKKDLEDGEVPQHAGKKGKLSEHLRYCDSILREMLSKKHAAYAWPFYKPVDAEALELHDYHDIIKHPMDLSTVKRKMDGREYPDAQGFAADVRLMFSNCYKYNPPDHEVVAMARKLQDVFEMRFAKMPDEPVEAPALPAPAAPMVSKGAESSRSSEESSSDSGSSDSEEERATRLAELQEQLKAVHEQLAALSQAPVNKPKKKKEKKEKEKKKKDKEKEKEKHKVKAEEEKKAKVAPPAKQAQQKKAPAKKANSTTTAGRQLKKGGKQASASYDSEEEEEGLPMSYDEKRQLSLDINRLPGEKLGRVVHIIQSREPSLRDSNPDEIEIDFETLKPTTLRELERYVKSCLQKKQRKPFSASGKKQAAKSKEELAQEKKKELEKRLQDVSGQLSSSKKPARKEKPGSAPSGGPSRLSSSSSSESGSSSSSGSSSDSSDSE
Sequence of Bromodomain-containing protein 2 (P25440 whole entry): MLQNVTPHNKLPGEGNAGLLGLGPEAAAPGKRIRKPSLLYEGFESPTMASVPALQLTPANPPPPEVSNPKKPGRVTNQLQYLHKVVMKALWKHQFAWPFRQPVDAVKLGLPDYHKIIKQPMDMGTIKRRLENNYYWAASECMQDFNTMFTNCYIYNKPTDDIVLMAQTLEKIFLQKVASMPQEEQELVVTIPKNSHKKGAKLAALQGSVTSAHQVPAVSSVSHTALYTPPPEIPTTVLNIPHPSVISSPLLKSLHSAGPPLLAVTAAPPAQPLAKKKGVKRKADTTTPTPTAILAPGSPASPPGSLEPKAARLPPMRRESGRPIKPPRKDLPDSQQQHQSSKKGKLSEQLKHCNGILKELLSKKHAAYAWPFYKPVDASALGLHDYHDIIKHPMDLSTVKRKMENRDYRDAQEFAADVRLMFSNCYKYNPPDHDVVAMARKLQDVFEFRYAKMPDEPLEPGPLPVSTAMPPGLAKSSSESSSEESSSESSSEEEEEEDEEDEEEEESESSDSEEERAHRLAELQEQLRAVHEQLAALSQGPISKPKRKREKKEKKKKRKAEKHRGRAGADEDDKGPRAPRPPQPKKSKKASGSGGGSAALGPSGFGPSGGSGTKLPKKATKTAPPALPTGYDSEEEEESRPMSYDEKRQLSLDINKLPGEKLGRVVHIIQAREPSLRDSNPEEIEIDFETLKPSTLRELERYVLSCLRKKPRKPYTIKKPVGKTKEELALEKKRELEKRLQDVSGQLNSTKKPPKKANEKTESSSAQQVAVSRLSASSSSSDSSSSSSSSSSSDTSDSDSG

SMILES: CCCCOC(=O)C[C@@H]1N=C(c2ccc(Cl)cc2)c2cc(OC)ccc2-n2c(C)nnc21
- solubility at 16 h [1]: 104 µg/mL (≈ 230 µM)

SMILES: COc1cccc(C2=NC(NC(=O)OCc3ccccc3)c3nnc(C)n3-c3ccccc32)c1 (centres undefined)
- IC50 [2]: 3160 nM
- IC50 [3]: 501 nM

SMILES: COC(=O)C[C@@H]1N=C(c2ccc(Cl)cc2)c2cc(OC)ccc2-n2c(C)nnc21
- IC50 [3]: 126 nM
- solubility at 16 h [1]: 115 µg/mL (≈ 280 µM)

SMILES: Cc1nnc2n1-c1ccc([N+](=O)[O-])cc1C(c1ccccc1)=NC2NC(=O)OCc1ccccc1 (centres undefined)
- IC50 [2]: 12600 nM
- IC50 [3]: 2000 nM

SMILES: CCNC(=O)C[C@@H]1N=C(c2ccc(Cl)cc2)c2ccc(OC)cc2-n2c(C)nnc21
- IC50 [3]: 631 nM

SMILES: COc1ccc2c(c1)C(c1ccc(Cl)cc1)=N[C@@H](CC(=O)O)c1nnc(C)n1-2
- IC50 [3]: > 100000 nM
- solubility at 16 h [1]: 113 µg/mL (≈ 285 µM)

SMILES: CCNC(=O)C[C@@H]1N=C(c2cccc(F)c2)c2cc(OC)ccc2-n2c(C)nnc21
- solubility at 16 h [1]: 116 µg/mL (≈ 285 µM)

SMILES: Cc1ccc(C2=NC(NC(=O)OCc3ccccc3)c3nnc(C)n3-c3ccccc32)cc1 (centres undefined)
- IC50 [2]: 1580 nM
- IC50 [4]: 1000 nM

SMILES: COc1ccc2c(c1)C(c1ccccc1)=NC(NC(=O)OCc1ccccc1)c1nnc(C)n1-2 (centres undefined)
- IC50 [2]: 794 nM
- IC50 [4]: 794 nM
- IC50 [3]: 126 nM

SMILES: COc1ccc2c(c1)C(c1ccc(Cl)cc1)=N[C@@H](CC(=O)NCC1CC1)c1nnc(C)n1-2
- solubility at 16 h [1]: 111 µg/mL (≈ 247 µM)

SMILES: Cc1nnc2n1-c1ccccc1C(c1ccccc1)=NC2NC(=O)OCc1ccccc1 (centres undefined)
- EC170 [5]: 0.22 µM
- half-life [6]: 34.8 min
- IC50 [3]: 158 nM

SMILES: Cc1nnc2n1-c1ccccc1C(c1ccccc1)=NC2NC(=O)OCc1ccc(F)cc1 (centres undefined)
- half-life [6]: 19.8 min
- IC50 [2]: 2000 nM
- IC50 [4]: 1000 nM
- IC50 [3]: 316 nM

SMILES: Cc1nnc2n1-c1ccccc1C(c1ccccc1)=NC2CC(=O)NCc1ccccc1 (centres undefined)
- half-life [6]: > 120 min
- IC50 [2]: 2510 nM
- IC50 [4]: 2000 nM
- IC50 [3]: 5010 nM
- solubility at 16 h [1]: 1 µg/mL (≈ 2.37 µM)

SMILES: COc1ccc2c(c1)C(c1ccc(Cl)cc1)=N[C@@H](CC(=O)Nc1ccc(F)cc1)c1nnc(C)n1-2
- IC50 [3]: 2000 nM
- solubility at 16 h [1]: 105 µg/mL (≈ 214 µM)

SMILES: COc1ccccc1C1=NC(NC(=O)OCc2ccccc2)c2nnc(C)n2-c2ccccc21 (centres undefined)
- IC50 [2]: 10000 nM
- IC50 [3]: 10000 nM

SMILES: Cc1nnc2n1-c1ccc(Cl)cc1C(c1ccccc1)=NC2NC(=O)OCc1ccccc1 (centres undefined)
- IC50 [2]: 3160 nM
- IC50 [4]: 1580 nM
- IC50 [3]: 631 nM

SMILES: Cc1nnc2n1-c1ccccc1C(c1ccccc1)=NC2NC(=O)Oc1cccc(F)c1 (centres undefined)
- IC50 [2]: 3160 nM
- IC50 [4]: 1260 nM

SMILES: Cc1nnc2n1-c1ccccc1C(c1ccccc1)=NC2NS(=O)(=O)Cc1ccccc1 (centres undefined)
- IC50 [2]: 31600 nM
- IC50 [3]: 15800 nM

SMILES: CCOC(=O)NC1N=C(c2ccccc2)c2ccccc2-n2c(C)nnc21 (centres undefined)
- half-life [6]: 33.6 min

SMILES: Cc1ccc2c(c1)-n1c(C)nnc1C(NC(=O)OCc1ccccc1)N=C2c1ccccc1 (centres undefined)
- IC50 [2]: 2510 nM
- IC50 [4]: 1260 nM
- IC50 [3]: 631 nM

SMILES: COc1ccc2c(c1)C(c1ccc(Cl)cc1)=N[C@@H](CC(=O)Nc1ccccn1)c1nnc(C)n1-2
- IC50 [3]: 316 nM
- solubility at 16 h [1]: 115 µg/mL (≈ 243 µM)

SMILES: Cc1nnc2n1-c1ccccc1C(c1ccccc1)=NC2NC(=O)CCc1ccccc1 (centres undefined)
- IC50 [2]: 15800 nM
- IC50 [4]: 3160 nM

SMILES: CCOC(=O)N[C@@H]1N=C(c2ccccc2)c2ccccc2-n2c(C)nnc21
- half-life [6]: 13.8 min
- IC50 [3]: 200 nM

SMILES: CCOC(=O)NC1N=C(c2ccc(Cl)cc2)c2ccccc2-n2c(C)nnc21 (centres undefined)
- half-life [6]: 45 min
- IC50 [2]: 2510 nM
- IC50 [4]: 1260 nM

SMILES: COc1ccc2c(c1)C(c1ccc(Cl)cc1)=N[C@@H](CC(=O)Nc1cccnc1)c1nnc(C)n1-2
- solubility at 16 h [1]: 95 µg/mL (≈ 201 µM)

SMILES: CCNC(=O)C[C@@H]1N=C(c2ccc(Cl)cc2)c2cc(OC)ccc2-n2c(C)nnc21 [MOLIBRESIB]
- Activity [7]: Dose-dependent effect
- Activity [8]: Non-toxic
- Activity [9]: Non-toxic
- Activity [10]: Non-toxic
- Activity [11]: Non-toxic
- Activity [12]: Non-toxic
- Activity [13]: Non-toxic
- Activity [14]: Non-toxic
- Activity [15]: Non-toxic
- bioavailability [16]: 44%
- bioavailability [17]: 52%
- bioavailability [18]: 27%
- bioavailability [19]: 61%
- half-life [20]: 90 min
- half-life [21]: 354 min
- half-life [22]: 30 min
- half-life [23]: 90 min
- Vd [24]: 1.5 L/kg
- Vd [25]: 1.8 L/kg
- Vd [26]: 1.8 L/kg
- Vd [27]: 6.5 L/kg
- AUC(0-inf) [28]: 3340 ng·h/mL
- AUC(0-inf) [29]: 201 ng·h/mL
- AUC(0-inf) [30]: 4740 ng·h/mL
- AUC(0-inf) [31]: 468 ng·h/mL
- fraction unbound at 1000 ng/ml [32]: 0.24
- fraction unbound at 1000 ng/ml [33]: 0.19
- fraction unbound at 1000 ng/ml [34]: 0.21
- fraction unbound at 1000 ng/ml [35]: 0.18
- CLH [36]: < 0.86 mL/min/g
- CLH [37]: < 0.085 mL/min/g
- CLH [38]: < 1.7 mL/min/g
- CLH [39]: < 0.86 mL/min/g
- CLH [40]: < 0.53 mL/min/g
- CLH [41]: < 0.86 mL/min/g
- CLH [42]: 0.2 mL/min/g
- CLH [43]: 0.69 mL/min/g
- CLH [44]: 1.45 mL/min/g
- CLH [45]: < 0.53 mL/min/g
- IC50 [3]: 316 nM
- clearance at 1 h [46]: 14 mL/min/kg
- clearance at 1 h [47]: 5 mL/min/kg
- clearance at 1 h [48]: 63 mL/min/kg
- clearance at 1 h [49]: 75 mL/min/kg

SMILES: COc1ccc(C2=NC(NC(=O)OCc3ccccc3)c3nnc(C)n3-c3ccccc32)cc1 (centres undefined)
- IC50 [2]: 2000 nM
- IC50 [4]: 1000 nM
- IC50 [3]: 316 nM

SMILES: Cc1nnc2n1-c1ccccc1C(c1ccccc1)=NC2NC(=O)NCc1ccccc1 (centres undefined)
- IC50 [2]: 2000 nM
- IC50 [4]: 794 nM
- IC50 [3]: 398 nM
